Measurements published in BigSolDB 2.1.

CC(C)c1nc(N(C)S(C)(=O)=O)nc(-c2ccc(F)cc2)c1/C=C/[C@@H](O)C[C@@H](O)CC(=O)[O-].CC(C)c1nc(N(C)S(C)(=O)=O)nc(-c2ccc(F)cc2)c1/C=C/[C@@H](O)C[C@@H](O)CC(=O)[O-].[Ca+2]
solubility (mole fraction)
Settings	in ethanol	in ethylene glycol	in isopropanol	in n-butanol	in propylene glycol	in sec-butanol	in water
298.15 K	0.000337	0.000255	0.000304	0.000429	0.0156	7.17e-05	5.4e-06
303.15 K	0.000392	0.000311	0.000366	0.000511	0.0164	8e-05	7.02e-06
308.15 K	0.000469	0.000374	0.000432	0.000614	0.0173	8.96e-05	9e-06
313.15 K	0.00057	0.00044	0.000499	0.00071	0.0181	9.92e-05	1.13e-05
318.15 K	0.000681	0.000503	0.000566	0.00082	0.0189	0.000108	1.4e-05
